Measurements from patent publication EP2420510B1, “Nicotinoyl peptide derivatives and cosmetic composition comprising the same” (BIO-FD&C Co., Ltd., priority 2010, dated 2013).
Residues, ends and D or L forms follow the SMILES beside them.

Columns and labels:
Human fibroblasts = test: Cytotoxicity test (MTT, cell growth effect); type: cell-based; conditions: 100 µM, 24 hours, MTT absorbance at 570 nm relative to purified water control (=100)
Description: (§1) 50 µl of 3-(4,5-dimethylthiazol-2-yl)-2,5-diphenyltetrazolium bromide (MTT, Sigma M5655, USA) solution (2.5 mg/mℓ) was added to the culture solution, followed by further culturing for 3 hours. Then, the culture solution was centrifuged to remove a supernatant, and 200 µl of dimethylsulfoxide (DMSO, Sigma D2650, USA) was added to each well and vortexed for 20 minutes to dissolve formazan crystals formed. 100 µl of the resulting solution was added to a 96-well plate and its absorbance was measured at 570 nm with enzyme-linked immunosorbent assay (ELISA).

iNOS = test: Anti-inflammatory activity test (iNOS activity inhibition test; nitric oxide by Griess reagent after LPS); type: cell-based, murine; conditions: Mus musculus; amount of nitric oxide produced relative to group treated with LPS only (=100); 100 µM pre-treatment 18 hours, then LPS 24 hours, Raw264.7 cells; read-out: Yields (%)
Description: Raw264.7 cells (murine macrophage cell line) were suspended in 10% fetal bovine serum-Dulbecco's modified Eagle's medium (FBS-DMEM) without […] (GIBCO) in […] and seed to a 24-well plate.
Then, […] of lipopolysaccharide (LPS, Sigma) was added and cultured for 24 hours. Afterwards, 100µℓ of the obtained supernatant was added to a 96-well plate and the same amount of Griess reagent (Sigma) was added, followed by light vortexing at room temperature for 10 minutes. The absorbance was measured at 570 nm.
The calibration curve was prepared using sodium nitrite as a standard, and the amount of nitric oxide produced in the culture solution was calculated. […]

[1] = Cytotoxicity test (MTT, cell growth effect); type: cell-based; conditions: human fibroblasts, MTT absorbance at 570 nm relative to purified water control (=100)
Description: as §1

[2] = system: Human fibroblasts (primary cell line, CCD-986sk); conditions: 100 µM, 24 hours, CCD-986sk fibroblasts, PIP ELISA absorbance at 450 nm relative to purified water control (=100)
Description: Human fibroblasts (primary cell line, CCD-986sk) were seeded to a plate and cultured in Dulbecco's modified Eagle's medium (DMEM) supplemented with penicillin (100 IU/ml), streptomycin (100µg/ml) and 10% fetal bovine serum (FBS) at 37 °C with 5% CO2.
The cultured cells were divided to a 48-well plate in 5×10^4 cells/well and cultured for 24 hours. […] The amount of collagen generated in the culture solution was measured with procollagen type I C-peptide (PIP) (Takara, MK101) ELISA.
After 100 µℓ of antibody-PoD conjugate solution was added to each well, 20 µℓ of the culture solution diluted to 1/5 and standard solution were added and cultured at 37 °C for 3 hours. Then, each well was washed four times with 400 µℓ of PBS. 100 µℓ of color coupler was added and cultured at room temperature for 15 minutes. Then, 100 µℓ of IN sulfuric acid was added and the absorbance was measured at 450 nm with a ELISA reader.
Collagen generation activity = (Absorbance of peptide treated group)/(Absorbance of control) X 100 [formula]

Row | Compound | Cell Growth Effect (%) (Human fibroblasts) | activity at 100 µM (iNOS) [%] | viability at 24 h, 100 µM [1] [%] | Collagen Generation Activity (%) [2] [%]
1 | O=C(O)CNC(=O)[C@H](CS)NC(=O)CC[C@H](NC(=O)c1cccnc1)C(=O)O [Comparative Example 1, nicotinoyl-tripeptide (γ-glutamyl-cysteinyl-glycine (SEO ID No:13))] | 98.3 |  |  | 
2 | C[C@@H](O)[C@H](NC(=O)[C@H](CCCCN)NC(=O)c1cccnc1)C(=O)N[C@H](C(=O)N[C@@H](CCCCN)C(=O)N[C@@H](CO)C(=O)O)[C@@H](C)O [Comparative Example 2, nicotinoyl-pentapeptide (lysyl-threonyl-threonyl-lysyl-serine (SEQ ID No:12))] (HELM PEPTIDE1{[O=C(c1cccnc1)[*:2]].K.T.T.K.S}$$$$V2.0) | 97.6 |  |  | 
3 | CSCC[C@H](NC(=O)[C@H](Cc1ccccc1)NC(=O)CNC(=O)CNC(=O)[C@H](Cc1ccc(O)cc1)NC(=O)c1cccnc1)C(=O)O [Example 1, nicotinoyl-pentapeptide (tyrosyl-glycyl-glycyl-phenylalanyl-methionine (SEQ ID No:1))] | 102.1 |  |  | 
4 | CC(C)C[C@H](NC(=O)[C@H](Cc1ccccc1)NC(=O)CNC(=O)CNC(=O)[C@H](Cc1ccc(O)cc1)NC(=O)c1cccnc1)C(=O)O [Example 2, nicotinoyl-pentapeptide (tyrosyl-glycyl-glycyl-Phenylalanyl-leucine (SEO ID No:2))] | 101.3 |  |  | 
5 | CC(C)C[C@H](NC(=O)[C@H](Cc1ccccc1)NC(=O)CNC(=O)CNC(=O)[C@H](Cc1ccc(O)cc1)NC(=O)c1cccnc1)C(=O)N[C@@H](CCCNC(=N)N)C(=O)N[C@@H](CCCCN)C(=O)N[C@@H](Cc1ccc(O)cc1)C(=O)N1CCC[C@H]1C(=O)O [Example 3, nicotinoyl-nonapeptide (tyrosyl-glycyl-glycyl-phenylalanyl-leucyl-arginyl-lysyl-tyrosyl-proline (SEQ ID No:3))] (HELM PEPTIDE1{[O=C(c1cccnc1)[*:2]].Y.G.G.F.L.R.K.Y.P}$$$$V2.0) | 99.1 |  |  | 
6 | CC(C)C[C@H](NC(=O)[C@H](Cc1ccccc1)NC(=O)CNC(=O)CNC(=O)[C@H](Cc1ccc(O)cc1)NC(=O)c1cccnc1)C(=O)N[C@@H](CCCNC(=N)N)C(=O)N[C@@H](CCCCN)C(=O)N[C@@H](Cc1ccc(O)cc1)C(=O)N1CCC[C@H]1C(=O)N[C@@H](CCCCN)C(=O)O [Example 4, nicotinoyl-decapeptide (tyrosyl-glycyl-glycyl-phenylalanyl-leucyl-arginyl-lysyl-tyrosyl-prolyl-lycine (SEQ ID No:4))] (HELM PEPTIDE1{[O=C(c1cccnc1)[*:2]].Y.G.G.F.L.R.K.Y.P.K}$$$$V2.0) | 98.8 |  |  | 
7 | NC(=O)c1cccnc1 [Nicotinamide] |  | 96.1 | 103 | 108.8
8 | O=C(O)c1cccnc1 [Nicotinic acid] |  | 98.8 | 102 | 105.2
